One test has as its target T1, CDK1 (Homo sapiens, UniProt P06493).
T1 construct: purchased New England Biolabs, Beverly, Mass; 6020; host or cells: insect cells
The test is described as follows: CDK-1 kinase screening assay (33P-ATP FlashPlate). Format: biochemical. As to conditions: human CDK1 with cyclin B; 10 μM ATP; 1 hr at 30° C.

In another test the target is T2, VEGF-R2 (Rattus norvegicus, UniProt O08775).
T2 construct: polyhistidine (N)
The test is described as follows: VEGF-R2 kinase screening assay (33P-ATP FlashPlate).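 Also: Read-out is ³³P incorporation from ³³P-γ-ATP into biotinylated peptide substrate captured on streptavidin FlashPlate, counted by scintillation, 1% DMSO final, inhibition scaled between per-plate maximum and minimum signals.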 It is filed as biochemical. As to conditions: rat VEGF-R2 kinase domain; 10 μM ATP; 1 hr at 30° C.

The target of a further test is T3, HER2 (Homo sapiens, UniProt P04626).
T3 construct: GST (Glutathione-S-Transferase) (N); HIS6 (N); thrombin cleavage site (N); purchased Proqinase, Freiburg, Germany
Nature of the test: HER2 kinase screening assay (33P-ATP FlashPlate).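 Also: Biotin-poly(GT) 4:1 peptide captured on streptavidin FlashPlate, 33P transfer from γ-ATP read by scintillation counting, lower incorporation means inhibition, 1% DMSO final, 100 µL reaction.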 It is filed as biochemical. As to conditions: GST-HIS6 HER-2 aa 679 to 1255; 10 μM ATP; 1 hr at 30° C.

In a further test the target is T4, Aurora-A (Mus musculus, UniProt P97477).
T4 construct: polyhistidine (N)
T4 sequence (P97477 1-395): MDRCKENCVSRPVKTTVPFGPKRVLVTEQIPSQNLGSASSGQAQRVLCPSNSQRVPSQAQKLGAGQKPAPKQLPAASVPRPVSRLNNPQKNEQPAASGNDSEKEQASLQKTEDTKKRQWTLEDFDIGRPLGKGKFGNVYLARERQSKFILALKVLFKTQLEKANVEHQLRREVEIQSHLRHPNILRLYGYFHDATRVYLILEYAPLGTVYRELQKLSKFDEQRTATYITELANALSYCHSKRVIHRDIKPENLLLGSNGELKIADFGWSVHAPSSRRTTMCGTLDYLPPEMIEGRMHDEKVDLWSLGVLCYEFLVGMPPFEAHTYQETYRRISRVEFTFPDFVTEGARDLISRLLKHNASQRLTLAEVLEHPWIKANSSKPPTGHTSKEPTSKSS
The test is described as follows: Aurora-A kinase screening assay (33P-ATP FlashPlate).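 Also: His-tagged mouse Aurora-A phosphorylating a biotinylated peptide captured on streptavidin plates, read as 33P uptake by scintillation counting, 1% DMSO, inhibition scaled between per-plate maximum and minimum signals.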 To be noted: 10 μM ATP, 1 hr at 30° C. Format: biochemical.

The next test concerns the target T5, RET (Homo sapiens, UniProt P07949).
T5 construct: polyhistidine (N)
T5 sequence (P07949 658-1114 limits assumed): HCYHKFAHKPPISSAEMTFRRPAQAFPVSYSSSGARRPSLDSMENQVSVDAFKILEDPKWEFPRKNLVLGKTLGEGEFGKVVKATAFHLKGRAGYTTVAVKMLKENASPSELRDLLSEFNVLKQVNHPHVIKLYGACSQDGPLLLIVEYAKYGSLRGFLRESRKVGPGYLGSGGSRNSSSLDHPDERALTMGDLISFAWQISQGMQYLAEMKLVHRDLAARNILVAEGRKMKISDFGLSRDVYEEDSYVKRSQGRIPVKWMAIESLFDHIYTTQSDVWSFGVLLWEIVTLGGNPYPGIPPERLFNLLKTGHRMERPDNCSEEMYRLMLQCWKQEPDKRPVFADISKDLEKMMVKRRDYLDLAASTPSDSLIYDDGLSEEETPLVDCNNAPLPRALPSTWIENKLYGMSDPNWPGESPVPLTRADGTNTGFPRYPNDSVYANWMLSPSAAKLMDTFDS
The test is described as follows: RET kinase screening assay (33P-ATP FlashPlate).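 Also: biotinylated peptide substrate captured on streptavidin FlashPlate, 33P phosphate transfer read by scintillation counting, 1% DMSO, lower incorporation means inhibition, percent relative to per-plate maximum and minimum signals.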 Format: biochemical. To be noted: human RET kinase domain; 10 μM ATP; 1 hr at 30° C.

In another test the target is T6, c-Src kinase (Homo sapiens, UniProt P12931).
T6 construct: purchased Upstate Biotechnology, Lake Placid, N.Y
Nature of the test: c-Src Kinase Assay. It is filed as biochemical. To be noted: 5 μM ATP. As to the method:
A mixture of a 10× kinase buffer (80 mM MOPS at pH 7.0, 2 mM EDTA and 100 mM Magnesium Chloride), ATP (5 μM final from a 10 mM stock), a Cdc2 peptide […] (100 μM final from a 2.5 mM stock), γ-^33P ATP (10 μCi/μL stock) and water (for a total of 20 μL/well) was added to each well of a Streptavidin Flashplate.
Test compound in 100% DMSO (0.5 μL) was added to the appropriate wells. Diluted c-Src kinase (human) (Accession Number SWISS-PROT P12931) (Upstate Biotechnology, Lake Placid, N.Y.) (diluted in a buffer consisting of 20 mM MOPS at pH 7.0, 1 mM EDTA, β-mercaptoethanol (0.1%), Brij-35 (0.01%), glycerol (5%), and 1 mg/mL bovine serum albumin) (2.5 μL) was added to the wells to initiate the reactions. The reaction plates were incubated at 30° C. for 40 min. The reaction was terminated by the addition of a 3% phosphoric acid solution (5 μL). The reaction product (10 μL) was spotted onto a P30 filtermat and washed for 5 minutes in phosphoric acid (75 mM). The wash sequence was repeated two more times, followed with one final wash in methanol. The plates were then dried, sealed and read on the TopCount scintillation counter after adding 30 μL scintillation fluid.
(§1) A maximum and minimum signal for the assay was determined on each plate. The percent inhibition of a test compound was calculated according to the formula: […]
For a series of test concentrations, the IC50 was derived by graphing percent inhibition against the log of the concentrations tested for a given compound with results shown in Table 2
(§2) For compounds with multiple values, each value represents a separate assay result.

In a further test the target is T7, Lyn kinase (Homo sapiens, UniProt P07948).
T7 construct: purchased Upstate Biotechnology, Lake Placid, N.Y
The test is described as follows: Lyn Kinase Assay. Format: biochemical. To be noted: 5 μM ATP. How it is done:
Test compound in 100% DMSO (0.5 μL) was added to the appropriate wells. Diluted Lyn kinase (human) (Accession Number EMBL M16038) (Upstate Biotechnology, Lake Placid, N.Y.) (diluted in a buffer consisting of 50 mM Tris at pH 7.5, 0.1 mM EGTA, Sodium Vanadate (0.1 mM), β-mercaptoethanol (0.1%) and 1 mg/mL bovine serum albumin) (2.5 μL) was added to the wells to initiate the reactions.
The reaction plates were incubated at 30° C. for 40 min. The reaction was terminated by the addition of a 3% phosphoric acid solution (5 μL). The reaction product (10 μL) was spotted onto a P30 filtermat and washed for 5 minutes in phosphoric acid (75 mM). The wash sequence was repeated two more times, followed with one final wash in methanol. The plates were then dried, sealed and read on the TopCount scintillation counter after adding 30 μL scintillation fluid.
as §1
For a series of test concentrations, the IC50 was derived by graphing percent inhibition against the log of the concentrations tested for a given compound with results shown in Table 3
as §2

For test [1], the system named is HeLa cervical adenocarcinoma. The test is described as follows: Cell Proliferation Inhibition Assay (14C-thymidine incorporation), HeLa.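 Also: test compound in DMSO added to cells seeded in scintillating 96-well plates, DMSO-only wells as control, uptake of methyl 14C-thymidine into new DNA counted.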 It is filed as cell-based. To be noted: Homo sapiens, HeLa cells. On the technique in general: Incorporation of labelled thymidine or its analogues reports DNA synthesis.
A further test deals with A375 malignant melanoma. The test is described as follows: Cell Proliferation Inhibition Assay (14C-thymidine incorporation), A375.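 Also: proliferation measured by radiolabelled thymidine uptake into new DNA, counted in scintillating 96-well plates, compound-treated wells compared with DMSO-only control wells.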 Format: cell-based. To be noted: Homo sapiens, A-375, A375 cells.
The subject of another test is HCT-116 colon carcinoma. The test is described as follows: Cell Proliferation Inhibition Assay (14C-thymidine incorporation), HCT-116.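 Also: proliferation measured as methyl 14C-thymidine uptake into new DNA, counted in 96-well scintillating microplates, compared with DMSO-only control wells.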 Format: cell-based. To be noted: Homo sapiens.

This note sets out measurements from US7541367B2, “3-benzoimidazolyl-pyrazolopyridines useful in treating kinase disorders” (Janssen Pharmaceutica, N.V., priority 2005, dated 2009).

Usually IC50 stands for the concentration at which inhibition is half-maximal.

T6 sequence (P12931 whole entry): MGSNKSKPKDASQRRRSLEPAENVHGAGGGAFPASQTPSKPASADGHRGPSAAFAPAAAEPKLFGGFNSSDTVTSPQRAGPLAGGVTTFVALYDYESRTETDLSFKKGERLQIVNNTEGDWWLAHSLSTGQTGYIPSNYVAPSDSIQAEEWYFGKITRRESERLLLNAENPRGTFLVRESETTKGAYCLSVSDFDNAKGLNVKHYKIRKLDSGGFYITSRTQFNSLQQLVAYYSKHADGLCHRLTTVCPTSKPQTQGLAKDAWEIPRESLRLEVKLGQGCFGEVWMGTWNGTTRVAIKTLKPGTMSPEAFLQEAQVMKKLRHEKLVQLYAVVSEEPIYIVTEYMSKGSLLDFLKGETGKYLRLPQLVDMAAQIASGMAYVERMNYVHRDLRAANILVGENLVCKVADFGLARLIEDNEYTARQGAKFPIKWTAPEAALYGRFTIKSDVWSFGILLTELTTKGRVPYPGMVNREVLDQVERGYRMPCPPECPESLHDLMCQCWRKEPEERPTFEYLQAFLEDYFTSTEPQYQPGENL
T3 sequence (P04626 679-1255): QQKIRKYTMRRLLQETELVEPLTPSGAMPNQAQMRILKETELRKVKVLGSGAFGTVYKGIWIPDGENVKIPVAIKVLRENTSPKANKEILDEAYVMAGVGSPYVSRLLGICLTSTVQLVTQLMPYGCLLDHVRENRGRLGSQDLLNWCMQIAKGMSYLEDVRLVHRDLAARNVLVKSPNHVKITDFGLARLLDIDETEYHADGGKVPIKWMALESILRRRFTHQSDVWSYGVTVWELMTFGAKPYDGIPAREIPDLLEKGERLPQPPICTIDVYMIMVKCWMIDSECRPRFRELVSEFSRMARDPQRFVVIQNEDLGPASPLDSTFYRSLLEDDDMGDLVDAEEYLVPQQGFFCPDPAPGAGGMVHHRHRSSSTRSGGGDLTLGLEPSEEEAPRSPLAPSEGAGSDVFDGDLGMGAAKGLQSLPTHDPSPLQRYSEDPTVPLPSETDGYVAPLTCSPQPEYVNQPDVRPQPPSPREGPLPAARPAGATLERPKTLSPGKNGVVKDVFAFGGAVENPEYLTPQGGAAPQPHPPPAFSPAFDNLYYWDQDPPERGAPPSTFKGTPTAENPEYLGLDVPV
T2 sequence (O08775 786-1343): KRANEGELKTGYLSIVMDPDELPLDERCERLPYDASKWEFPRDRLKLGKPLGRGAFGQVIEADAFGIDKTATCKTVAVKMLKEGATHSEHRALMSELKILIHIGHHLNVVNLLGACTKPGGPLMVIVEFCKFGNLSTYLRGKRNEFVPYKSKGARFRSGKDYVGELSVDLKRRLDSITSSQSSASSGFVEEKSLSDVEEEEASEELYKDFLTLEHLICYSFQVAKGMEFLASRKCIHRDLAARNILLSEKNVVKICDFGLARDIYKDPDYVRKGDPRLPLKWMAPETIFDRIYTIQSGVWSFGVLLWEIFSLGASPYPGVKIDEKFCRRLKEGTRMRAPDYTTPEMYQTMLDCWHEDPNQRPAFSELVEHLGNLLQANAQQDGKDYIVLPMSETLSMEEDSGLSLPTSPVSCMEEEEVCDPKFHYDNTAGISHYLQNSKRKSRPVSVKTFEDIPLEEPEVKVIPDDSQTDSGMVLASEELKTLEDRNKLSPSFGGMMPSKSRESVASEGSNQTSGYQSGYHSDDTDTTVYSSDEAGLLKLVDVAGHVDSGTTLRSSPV
T1 sequence (P06493 whole entry): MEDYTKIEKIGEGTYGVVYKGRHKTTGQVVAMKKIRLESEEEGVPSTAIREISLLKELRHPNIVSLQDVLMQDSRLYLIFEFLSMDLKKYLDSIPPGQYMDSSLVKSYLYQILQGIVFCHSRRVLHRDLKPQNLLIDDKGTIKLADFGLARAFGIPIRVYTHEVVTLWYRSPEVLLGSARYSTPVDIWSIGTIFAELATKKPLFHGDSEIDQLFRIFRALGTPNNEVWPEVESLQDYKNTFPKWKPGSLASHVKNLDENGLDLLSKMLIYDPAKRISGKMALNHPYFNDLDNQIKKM
T1 sequence (P14635 whole entry partner): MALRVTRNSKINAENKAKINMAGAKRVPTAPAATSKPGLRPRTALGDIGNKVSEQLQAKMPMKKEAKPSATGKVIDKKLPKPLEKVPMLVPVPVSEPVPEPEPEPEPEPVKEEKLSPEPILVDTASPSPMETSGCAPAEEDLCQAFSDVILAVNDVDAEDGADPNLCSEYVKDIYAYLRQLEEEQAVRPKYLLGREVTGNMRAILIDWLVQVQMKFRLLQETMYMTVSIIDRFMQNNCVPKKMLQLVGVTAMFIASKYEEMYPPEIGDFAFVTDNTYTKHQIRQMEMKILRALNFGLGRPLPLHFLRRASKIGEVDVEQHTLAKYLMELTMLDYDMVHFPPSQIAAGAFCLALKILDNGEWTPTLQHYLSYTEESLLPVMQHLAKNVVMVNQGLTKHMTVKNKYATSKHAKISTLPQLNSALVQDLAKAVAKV
T7 sequence (P07948 whole entry): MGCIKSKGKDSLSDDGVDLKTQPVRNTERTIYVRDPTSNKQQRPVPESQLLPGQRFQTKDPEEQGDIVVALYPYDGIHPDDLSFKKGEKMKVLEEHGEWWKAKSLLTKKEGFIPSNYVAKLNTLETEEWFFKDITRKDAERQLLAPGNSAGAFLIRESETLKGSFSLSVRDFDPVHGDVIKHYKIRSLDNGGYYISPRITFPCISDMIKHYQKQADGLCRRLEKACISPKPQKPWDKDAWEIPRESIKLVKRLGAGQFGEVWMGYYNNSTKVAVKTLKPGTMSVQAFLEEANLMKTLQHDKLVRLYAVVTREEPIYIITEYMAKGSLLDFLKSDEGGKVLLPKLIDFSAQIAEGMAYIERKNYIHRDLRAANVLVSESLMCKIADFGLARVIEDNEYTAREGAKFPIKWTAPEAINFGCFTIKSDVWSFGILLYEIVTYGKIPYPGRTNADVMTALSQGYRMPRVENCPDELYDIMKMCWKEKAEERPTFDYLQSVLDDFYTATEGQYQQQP

On to `CCN(CC)c1ccc(NC(=O)c2cccc3[nH]c(-c4n[nH]c5ncc(-c6cncc7ccccc67)cc45)nc23)c(C)c1` [Cpd 50, 2-(5-isoquinolin-4-yl-1H-pyrazolo[3,4-b]pyridin-3-yl)-1H-benzoimidazole-4-carboxylic acid (4-diethylamino-2-methyl-phenyl)-amide], for which the concentration for half-maximal inhibition (IC50) against CDK1 is 40.6 nM; against VEGF-R2, more than 100000 nM; against HER2, more than 100000 nM; on Aurora-A, 168 nM; against RET, more than 10000 nM; at c-Src kinase, 1.04 nM. The 50% inhibitory concentration (IC50) at Lyn kinase turned out to be 5.21 nM; in test [1] (HeLa) it was 258 nM; in the test on A375 malignant melanoma, 242 nM; in the test on HCT-116 colon carcinoma (HCT-116, HCT-116 cells) it was 455 nM.
`CN(C)c1ccc(NC(=O)c2cccc3[nH]c(-c4n[nH]c5ncc(-c6cncc7ccccc67)cc45)nc23)cc1` [Cpd 49, 2-(5-isoquinolin-4-yl-1H-pyrazolo[3,4-b]pyridin-3-yl)-1H-benzoimidazole-4-carboxylic acid (4-dimethylamino-phenyl)-amide]: the 50% inhibitory concentration (IC50) against CDK1 is 64.8 nM; against VEGF-R2 it was more than 10000 nM; against HER2, more than 100000 nM; on Aurora-A, 154 nM; against RET, approximately 1000 nM; against c-Src kinase, 1.13 nM. In addition, the half-maximal inhibitory concentration (IC50) against Lyn kinase was found to be 4.35 nM; in [1] (HeLa), 334 nM; in the test on A375 malignant melanoma, 302 nM; with HCT-116 colon carcinoma (HCT-116, HCT-116 cells) it was 426 nM.
Take `Cc1ccccc1NC(=O)c1cccc2[nH]c(-c3n[nH]c4ncc(-c5cncc6ccccc56)cc34)nc12` [Cpd 46, 2-(5-isoquinolin-4-yl-1H-pyrazolo[3,4-b]pyridin-3-yl)-1H-benzoimidazole-4-carboxylic acid o-tolylamide]: the IC50 against CDK1 was 80.6 nM; against VEGF-R2, 702 nM; against HER2, approximately 100000 nM; on Aurora-A, 230 nM; on RET, approximately 10000 nM; against c-Src kinase it was 1.4 nM. For the same molecule, the IC50 worked out at 6.31 nM on Lyn kinase; 159 nM in test [1] (HeLa); 194 nM in the test on A375 malignant melanoma; 225 nM with HCT-116 colon carcinoma (HCT-116, HCT-116 cells).
With `c1ccc2c(-c3cnc4[nH]nc(-c5nc6cc(N7CCOCC7)ccc6[nH]5)c4c3)cncc2c1` [Cpd 51, 4-[3-(5-morpholin-4-yl-1H-benzoimidazol-2-yl)-1H-pyrazolo[3,4-b]pyridin-5-yl]-isoquinoline], the IC50 is 8.55 nM on CDK1; 1080 nM on VEGF-R2; more than 100000 nM on HER2; 41.5 nM at Aurora-A; 2.82 nM against c-Src kinase; 5 nM at Lyn kinase. Further, the IC50 in test [1] (HeLa) is 401 nM; in the test on A375 malignant melanoma, 297 nM; in the test with HCT-116 colon carcinoma (HCT-116, HCT-116 cells), 376 nM.
`COCc1cccc2[nH]c(-c3nn(C)c4ncc(-c5cncc6ccccc56)cc34)nc12` [Cpd 33, 4-[3-(4-methoxymethyl-1H-benzoimidazol-2-yl)-1-methyl-1H-pyrazolo[3,4-b]pyridin-5-yl]-isoquinoline]: the IC50 on CDK1 was 123 nM; on VEGF-R2 it was more than 100000 nM; against HER2, more than 100000 nM; against Aurora-A, approximately 100000 nM; at RET, more than 100000 nM; on c-Src kinase, 1170 nM. The IC50 against Lyn kinase was found to be 1140 nM; in test [1] (HeLa) it was 1180 nM; with A375 malignant melanoma it was 256 nM; with HCT-116 colon carcinoma (HCT-116, HCT-116 cells), 203 nM.
Regarding `COCc1cccc2[nH]c(-c3n[nH]c4ncc(-c5cncc(CO)c5)cc34)nc12` [Cpd 44, {5-[3-(4-methoxymethyl-1H-benzoimidazol-2-yl)-1H-pyrazolo[3,4-b]pyridin-5-yl]-pyridin-3-yl}-methanol], the IC50 on CDK1 is 88.9 nM; against VEGF-R2, 341 nM; at HER2, more than 100000 nM; against Aurora-A, more than 1000 nM; against RET, approximately 10000 nM; at c-Src kinase, 288 nM. The IC50 on Lyn kinase stood at 379 nM; in [1] (HeLa) it was 771 nM; in the test on A375 malignant melanoma it was 357 nM; with HCT-116 colon carcinoma (HCT-116, HCT-116 cells) it was 128 nM.
As for `COCc1cccc2[nH]c(-c3n[nH]c4ncc(-c5cncc(CN(C)C)c5)cc34)nc12` [Cpd 55, {5-[3-(4-methoxymethyl-1H-benzoimidazol-2-yl)-1H-pyrazolo[3,4-b]pyridin-5-yl]-pyridin-3-ylmethyl}-dimethyl-amine], the IC50 against CDK1 was 124 nM; against VEGF-R2, 1600 nM; on HER2 it was more than 100000 nM; against Aurora-A it was 3750 nM; against c-Src kinase, 143 nM; on Lyn kinase it was 578 nM. In addition, the IC50 came to 1230 nM in test [1] (HeLa); 330 nM with A375 malignant melanoma; 186 nM in the test on HCT-116 colon carcinoma (HCT-116, HCT-116 cells).
As for `CNCc1cncc(-c2cnc3[nH]nc(-c4nc5cc(N6CCN(C)CC6)ccc5[nH]4)c3c2)c1` [Cpd 81, methyl-(5-{3-[5-(4-methyl-piperazin-1-yl)-1H-benzoimidazol-2-yl]-1H-pyrazolo[3,4-b]pyridin-5-yl}-pyridin-3-ylmethyl)-amine], the IC50 was found to be 3.04 nM against CDK1; 35.9 nM against VEGF-R2; 715 nM against HER2; 173 nM against Aurora-A; 225 nM at c-Src kinase; 170 nM on Lyn kinase. For the same molecule, the IC50 in test [1] stood at 444 nM; in the test with A375 malignant melanoma it was 768 nM; in the test with HCT-116 colon carcinoma (HCT-116 cells), 600 nM.
As for `O=C(NC1CC1)c1cccc2[nH]c(-c3n[nH]c4ncc(-c5cncc6ccccc56)cc34)nc12` [Cpd 47, 2-(5-isoquinolin-4-yl-1H-pyrazolo[3,4-b]pyridin-3-yl)-1H-benzoimidazole-4-carboxylic acid cyclopropylamide], the concentration for half-maximal inhibition (IC50) at CDK1 was 1.59 nM; against VEGF-R2, 149 nM; against HER2, approximately 10000 nM; against Aurora-A, 57.2 nM; on c-Src kinase it was 0.635 nM; on Lyn kinase, 2.28 nM. Besides, the IC50 was found to be 12.2 nM in [1] (HeLa); 12.9 nM in the test with A375 malignant melanoma; 31.3 nM with HCT-116 colon carcinoma (HCT-116, HCT-116 cells).
